For series [1], the target named is T1, human PGE2 receptor EP4 subtype (hEP4) (Homo sapiens, UniProt P35408).
T1 construct: expressed in transfected cells; host or cells: CHO-K1-Gα16
Description: Calcium flux of human prostaglandin E2 receptor EP4 subtype. Conditions: CHO-K1-Gα16 cells overexpressing hEP4, calcium flux activated by prostaglandin E2; read-out: hEP4 Ca^2+ IC50. In kind it is cell-based. The procedure:
(§1) CHO-K1-Gα16 cells at the logarithmic growth phase were transfected with EP4 overexpressing vector by Lipofectamine 2000 and then seeded in a 96-well plate (Falcon, CA) and cultured at 20000 cells per 100 μL culture medium overnight. On the second day, every single well were added with 100 μL calcium 5 detection reagents (Molecular Devices) and incubated in incubator at 37° C., 5% CO2 for 45 minutes. The compounds were diluted in HBSS detection buffer, then added to 96-well plates. After incubated for 20 min at room temperature away from light, certain concentration of prostaglandin E2 was used to activate calcium flux of cells for detection (Flexstation 3, MD, CA).
(§2) Calculate the IC50 of the compounds of the invention in inhibiting the calcium flux of human PGE2 receptor EP4 subtype (hEP4) and mouse PGE2 receptor EP4 subtype (mEP4) (i.e. the concentration of drugs at which the intracellular Ca^2+ flux is inhibited by half after overexpressing hEP4 and mEP4 receptors in CHO-K1-Gα16 cells). The IC50 of the drugs were calculated using GraphPad Prism 5.

Series [2] deals with T2, mouse PGE2 receptor EP4 subtype (mEP4) (Mus musculus, UniProt P32240).
T2 construct: expressed in transfected cells; host or cells: CHO-K1-Gα16
Description: Calcium flux of mouse prostaglandin E2 receptor EP4 subtype. The class given is cell-based. Conditions: CHO-K1-Gα16 cells overexpressing mEP4, calcium flux activated by prostaglandin E2; read-out: mEP4 Ca^2+ IC50. The protocol: as §1, §2

The nature of series [3]: Cytotoxicity evaluation (CCK8), CT26. Conditions: mouse, CT26 intestinal cancer cells.
Description: (§5) Cells with a density of 2000-8000 cells per 100 μL medium were seeded in 96-well plates (Falcon, CA) and incubated for 24 hours, then treated with drugs having different concentration gradient (at least 4 replicates per concentration) and incubated at 37° C. in 5% CO2 incubator for 72 hours. Then cell viability was detected by CCK8 method. That is to say, add 10 μL CCK8 to each well and incubate for 0.33-2 h, and the OD values are read by microplate reader at 450 nm. The inhibition rate on cell survival of compounds with each concentration were calculated.
(§6) Inhibition rate on cell survival=(OD value of groups with each concentration/OD
(§7) value of control group)×100%±standard deviation.
(§8) The IC50 of drugs were calculated using GraphPad Prism 5.0.
Series [4] is described as follows: Cytotoxicity evaluation (CCK8), EMT-6. Conditions: mouse, EMT-6 breast cancer cells.
Description: as §5, §6, §7, §8
Series [5] is described as follows: Cytotoxicity evaluation (CCK8), PANC02. Conditions: mouse, PANC02 pancreatic cancer cells.
Description: as §5, §6, §7, §8
Series [6] can be described thus: Cytotoxicity evaluation (CCK8), MOSJ. Conditions: mouse, MOSJ osteosarcoma cells.
Description: as §5, §6, §7, §8
The nature of series [7]: Cytotoxicity evaluation (CCK8), LLC. Conditions: mouse, LLC lung cancer cells.
Description: as §5, §6, §7, §8
The target in series [8] is T3, human prostaglandin E2 receptor EP1 subtype (Homo sapiens, UniProt P34995).
T3 construct: expressed in transfected cells; host or cells: CHO-K1-Gα16
T3 sequence (P34995 1-402): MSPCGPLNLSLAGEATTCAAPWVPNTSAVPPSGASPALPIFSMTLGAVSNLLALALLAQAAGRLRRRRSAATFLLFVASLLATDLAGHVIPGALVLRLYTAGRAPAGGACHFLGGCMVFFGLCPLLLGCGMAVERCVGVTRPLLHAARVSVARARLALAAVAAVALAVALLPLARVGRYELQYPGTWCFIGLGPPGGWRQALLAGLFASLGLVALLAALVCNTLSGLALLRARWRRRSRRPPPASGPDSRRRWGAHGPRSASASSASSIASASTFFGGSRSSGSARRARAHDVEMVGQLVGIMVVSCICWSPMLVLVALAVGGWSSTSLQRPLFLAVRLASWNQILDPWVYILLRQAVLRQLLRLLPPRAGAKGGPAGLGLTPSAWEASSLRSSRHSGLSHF
Description: Calcium flux of human prostaglandin E2 receptor EP1 subtype. The class given is cell-based. Conditions: CHO-K1-Gα16 cells overexpressing human EP1, activated by prostaglandin E2; read-out: hEP1 Ca^2+ IC50. The procedure: (§3) CHO-K1-Gα16 cells at the logarithmic growth phase were transfected with human prostaglandin E2 Receptor subtypes EP1, EP2 or EP3 overexpressing vector by Lipofectamine 2000, then seeded in a 96-well plate (Falcon, CA) at a density of 20000 cells per 100 μL culture medium for overnight culture. On the second day, every single well were added with 100 μL calcium 5 detection reagents (Molecular Devices) and incubated in incubator at 37° C., 5% CO2 for 45 minutes. The compounds were diluted with HBSS detection buffer, then were added to 96-well plates. After 20 min incubation at room temperature in the dark, prostaglandin E2 at certain concentration was used to activate calcium flux of cells for detection (Flexstation 3, MD, CA).
(§4) Calculate the IC50 of the compounds of the invention in inhibiting the calcium flux of human EP1, EP2, and EP3 receptor (i.e. the concentration of drugs at which the intracellular Ca^2+ flux being inhibited by half after overexpressing human EP1, EP2, and EP3 receptors in CHO-K1-Gα16 cells). The IC50 of the drugs were calculated using GraphPad Prism 5.

Series [9] has as its target T4, human prostaglandin E2 receptor EP2 subtype (Homo sapiens, UniProt P43116).
T4 construct: expressed in transfected cells; host or cells: CHO-K1-Gα16
In words: Calcium flux of human prostaglandin E2 receptor EP2 subtype. The class given is cell-based. To be noted: CHO-K1-Gα16 cells overexpressing human EP2, activated by prostaglandin E2; read-out: hEP2 Ca^2+ IC50. The procedure: as §3, §4

Series [10] concerns the target T5, human prostaglandin E2 receptor EP3 subtype (Homo sapiens, UniProt P43115).
T5 construct: expressed in transfected cells; host or cells: CHO-K1-Gα16
T5 sequence (P43115 1-390): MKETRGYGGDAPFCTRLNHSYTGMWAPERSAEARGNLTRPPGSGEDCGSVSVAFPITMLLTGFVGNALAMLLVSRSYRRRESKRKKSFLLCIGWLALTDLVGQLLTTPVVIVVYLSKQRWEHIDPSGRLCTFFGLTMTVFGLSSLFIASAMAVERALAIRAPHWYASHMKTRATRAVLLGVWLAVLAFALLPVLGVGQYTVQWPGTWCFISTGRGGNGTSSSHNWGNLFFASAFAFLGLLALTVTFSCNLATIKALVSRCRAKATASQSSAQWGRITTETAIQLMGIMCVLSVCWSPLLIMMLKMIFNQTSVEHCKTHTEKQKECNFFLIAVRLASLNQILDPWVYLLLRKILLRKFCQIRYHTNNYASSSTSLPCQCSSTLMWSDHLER
In words: Calcium flux of human prostaglandin E2 receptor EP3 subtype. The class given is cell-based. Conditions: CHO-K1-Gα16 cells overexpressing human EP3, activated by prostaglandin E2; read-out: hEP3 Ca^2+ IC50. The protocol:
as §3, §4

A short description of series [11]: Cytotoxicity evaluation (CCK8), 293. To be noted: human.

A value given as a limit tells only on which side of the number the result lay.

T1 sequence (P35408 whole entry): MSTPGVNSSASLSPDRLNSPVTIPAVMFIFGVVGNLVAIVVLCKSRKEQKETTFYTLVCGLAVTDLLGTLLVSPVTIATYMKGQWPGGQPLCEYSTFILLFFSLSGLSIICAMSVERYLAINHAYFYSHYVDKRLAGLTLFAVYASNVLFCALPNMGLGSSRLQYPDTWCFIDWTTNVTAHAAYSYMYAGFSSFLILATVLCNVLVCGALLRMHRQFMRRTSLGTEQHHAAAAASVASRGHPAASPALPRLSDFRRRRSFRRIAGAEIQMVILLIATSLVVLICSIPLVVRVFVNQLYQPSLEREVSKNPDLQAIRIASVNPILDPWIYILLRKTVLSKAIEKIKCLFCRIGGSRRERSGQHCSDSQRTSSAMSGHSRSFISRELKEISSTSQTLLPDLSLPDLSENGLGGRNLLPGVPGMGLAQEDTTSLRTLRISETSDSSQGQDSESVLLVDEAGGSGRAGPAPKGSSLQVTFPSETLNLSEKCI
T2 sequence (P32240 whole entry): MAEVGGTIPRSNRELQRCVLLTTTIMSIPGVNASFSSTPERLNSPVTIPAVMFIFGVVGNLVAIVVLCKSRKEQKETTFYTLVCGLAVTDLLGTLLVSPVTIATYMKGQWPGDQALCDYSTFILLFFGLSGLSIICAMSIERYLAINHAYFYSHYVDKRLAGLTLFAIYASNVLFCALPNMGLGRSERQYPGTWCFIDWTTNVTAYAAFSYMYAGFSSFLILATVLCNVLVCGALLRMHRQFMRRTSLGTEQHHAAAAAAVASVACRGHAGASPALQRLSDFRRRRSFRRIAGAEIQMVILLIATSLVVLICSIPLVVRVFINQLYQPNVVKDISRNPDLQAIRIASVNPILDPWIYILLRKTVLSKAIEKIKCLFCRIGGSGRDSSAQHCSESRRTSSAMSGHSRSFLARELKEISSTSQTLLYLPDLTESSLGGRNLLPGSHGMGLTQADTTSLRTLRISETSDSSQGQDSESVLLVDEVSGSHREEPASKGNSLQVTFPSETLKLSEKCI
T4 sequence (P43116 whole entry): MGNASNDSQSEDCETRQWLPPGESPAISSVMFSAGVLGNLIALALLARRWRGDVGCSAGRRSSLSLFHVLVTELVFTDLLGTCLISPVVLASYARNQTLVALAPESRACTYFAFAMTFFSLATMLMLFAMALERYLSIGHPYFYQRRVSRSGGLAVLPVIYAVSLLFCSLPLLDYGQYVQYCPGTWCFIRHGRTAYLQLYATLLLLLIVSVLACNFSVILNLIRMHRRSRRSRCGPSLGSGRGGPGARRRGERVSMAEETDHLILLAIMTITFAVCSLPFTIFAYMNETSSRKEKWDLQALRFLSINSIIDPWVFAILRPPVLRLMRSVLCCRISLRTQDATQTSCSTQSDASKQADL

On to `C[C@H](NC(=O)c1c(CCc2ccc(C(F)(F)F)cc2)sc2c1CCOC2)c1ccc(C(=O)O)cc1` [YJ111, (S)-4-(1-(2-(4-(trifluoromethyl)phenethyl)-5,7-dihydro-4H-thieno[2,3-c]pyran-3-carboxamido)ethyl)benzoic Acid], for which the IC50 in series [1] and in [2] was less than 0.1 µM each time.

On to `COc1ccc(CCc2sc3c(c2C(=O)N[C@@H](C)c2ccc(C(=O)O)cc2)CCOC3)cc1` [YJ122, (S)-4-(1-(2-(4-methoxyphenethyl)-4,7-dihydro-5H-thieno[2,3-c]pyran-3-carboxamido)ethyl)benzoic Acid], for which the IC50 in [1] is less than 0.1 µM.

On to `C[C@H](NC(=O)c1c(Cc2ccc(F)c(F)c2)sc2c1CCOC2)c1ccc(C(=O)O)cc1` [YJ127, (S)-4-(1-(2-(3,4-difluorobenzyl)-4,7-dihydro-5H-thieno[2,3-c]pyran-3-carboxamido)ethyl)benzoic Acid], for which the IC50 in [1] is less than 0.1 µM.

Consider `COc1ccc(Cc2sc3c(c2C(=O)N[C@@H](C)c2ccc(C(=O)O)cc2)CCOC3)cc1` [YJ128, (S)-4-(1-(2-(4-methoxybenzyl)-4,7-dihydro-5H-thieno[2,3-c]pyran-3-carboxamido)ethyl)benzoic Acid], for which the IC50 in [1] is less than 0.1 µM.

On to `C[C@H](NC(=O)c1c(C#Cc2ccc(F)cc2)sc2c1CC(C)(C)OC2)c1ccc(C(=O)O)cc1` [YJ105, (S)-4-(1-(2-((4-fluorophenyl)ethynyl)-5,5-dimethyl-5,7-dihydro-4H-thieno[2,3-c]pyran-3-carboxamido)ethyl)benzoic Acid], for which the IC50 in series [1] lay within 0.1 to 1 µM.

For the compound `C[C@H](NC(=O)c1c(CCc2cccc(F)c2)sc2c1CCOC2)c1ccc(C(=O)O)cc1` [YJ113, (S)-4-(1-(2-(3-fluorophenethyl)-4,7-dihydro-5H-thieno[2,3-c]pyran-3-carboxamido)ethyl)benzoic Acid], the IC50 at 72 h in [3], in series [4], in [5], in series [6], in series [7] and in series [11] was greater than 100 µM throughout. The IC50 was less than 0.1 µM in series [1]; 0.1 to 1 µM in [2]; greater than 10 µM in series [8]; greater than 10 µM in [9]; greater than 10 µM in series [10].

On to `C[C@H](NC(=O)c1c(CCc2ccc(F)cc2)sc2c1CCC2)c1ccc(C(=O)O)cc1` [YJ109, (S)-4-(1-(2-(4-fluorophenethyl)-5,6-dihydro-4H-cyclopenta[b]thiophene-3-carboxamido)ethyl)benzoic Acid], for which the IC50 at 72 h in series [3], in series [4], in series [5], in [6], in series [7] and in series [11] was greater than 100 µM throughout. For the same compound, the IC50 in [2] is less than 0.1 µM.

Regarding `C[C@H](NC(=O)c1c(CCc2ccc(F)cc2)sc2c1CCCC2)c1ccc(C(=O)O)cc1` [YJ108, (S)-4-(1-(2-(4-fluorophenethyl)-4,5,6,7-tetrahydrobenzo[b]thiophene-3-carboxamido)ethyl)benzoic Acid], the IC50 at 72 h in [3], in series [4], in series [5], in [6], in series [7] and in [11] was greater than 100 µM throughout. The IC50 was less than 0.1 µM in series [1]; less than 0.1 µM in series [2]; greater than 10 µM in series [8]; greater than 10 µM in [9]; greater than 10 µM in series [10].

In the case of `C[C@H](NC(=O)c1c(C#Cc2ccc(F)cc2)sc2c1CCC2)c1ccc(C(=O)O)cc1` [YJ102, (S)-4-(1-(2-((4-fluorophenyl)ethynyl)-5,6-dihydro-4H-cyclopenta[b]thiophene-3-carboxamido)ethyl)benzoic Acid], the concentration for half-maximal inhibition (IC50) in series [1] and in series [2] was less than 0.1 µM in each case.

`Nc1ccn([C@@H]2O[C@H](CO)[C@@H](O)C2(F)F)c(=O)n1` [gemcitabine, reference compound]: the IC50 at 72 h is 0.016 ± 0.0001 µM in series [3], 0.0726 ± 0.0003 µM in series [5], 0.0053 ± 0.0002 µM in [7] and 0.0051 ± 0.0001 µM in series [11].

`C[C@H](NC(=O)c1c(Cc2cccc(Cl)c2)sc2c1CCOC2)c1ccc(C(=O)O)cc1` [YJ126, (S)-4-(1-(2-(3-chlorobenzyl)-4,7-dihydro-5H-thieno[2,3-c]pyran-3-carboxamido)ethyl)benzoic Acid]: the IC50 in [1] is less than 0.1 µM.

Turning to `C[C@H](NC(=O)c1c(C#Cc2ccc(F)cc2)sc2c1CCOC2)c1ccc(C(=O)O)cc1` [YJ101, (S)-4-(1-(2-((4-fluorophenyl)ethynyl)-5,7-dihydro-4H-thieno[2,3-c]pyran-3-carboxamido)ethyl)benzoic Acid], the IC50 at 72 h in series [3], in series [4], in series [5], in series [6], in series [7] and in [11] was greater than 100 µM throughout. The IC50 in series [2] was 0.1 to 1 µM; in [8], greater than 10 µM; in series [9] it was greater than 10 µM; in series [10], greater than 10 µM.

With `O=C(NCC1CCC(C(=O)O)CC1)c1c(Cc2ccc(F)cc2)sc2c1CCOC2` (stereo not shown) [YJ130, 4-((2-(4-fluorobenzyl)-4,7-dihydro-5H-thieno[2,3-c]pyran-3-carboxamido)methyl)cyclohexane-1-carboxylic Acid], the IC50 is less than 0.1 µM in series [1] and 0.1 to 1 µM in series [2].

For `C[C@H](NC(=O)c1c(Cc2cccc(F)c2)sc2c1CCOC2)c1ccc(C(=O)O)cc1` [YJ123, (S)-4-(1-(2-(3-fluorobenzyl)-4,7-dihydro-5H-thieno[2,3-c]pyran-3-carboxamido)ethyl)benzoic Acid], the IC50 in series [1] was less than 0.1 µM.

The values are drawn from patent US20210139497A1, “THIENOCYCLIC COMPOUND AND SYNTHESIS METHOD THEREFOR AND APPLICATION THEREOF” (SHANGHAI YUYAO BIOTECH LTD., priority 2017, published 2021).
